Values of other authors as cited in patent US8058260B2, “2′-C-methyl-ribofuranosyl cytidine prodrugs, pharmaceutical compositions and uses thereof” (XenoPort, Inc., priority 2006, dated 2011).
Like-named read-outs stand apart in the source and are kept apart here.

Legend:
HCV = details: clinical evaluation as a treatment for HCV
[1] = human, in vivo
HCV NS5B polymerase = HCV NS5B polymerase (Hepatitis C virus genotype 1b, UniProt P26663)
Chain of HCV NS5B polymerase (P26663 2420-3010): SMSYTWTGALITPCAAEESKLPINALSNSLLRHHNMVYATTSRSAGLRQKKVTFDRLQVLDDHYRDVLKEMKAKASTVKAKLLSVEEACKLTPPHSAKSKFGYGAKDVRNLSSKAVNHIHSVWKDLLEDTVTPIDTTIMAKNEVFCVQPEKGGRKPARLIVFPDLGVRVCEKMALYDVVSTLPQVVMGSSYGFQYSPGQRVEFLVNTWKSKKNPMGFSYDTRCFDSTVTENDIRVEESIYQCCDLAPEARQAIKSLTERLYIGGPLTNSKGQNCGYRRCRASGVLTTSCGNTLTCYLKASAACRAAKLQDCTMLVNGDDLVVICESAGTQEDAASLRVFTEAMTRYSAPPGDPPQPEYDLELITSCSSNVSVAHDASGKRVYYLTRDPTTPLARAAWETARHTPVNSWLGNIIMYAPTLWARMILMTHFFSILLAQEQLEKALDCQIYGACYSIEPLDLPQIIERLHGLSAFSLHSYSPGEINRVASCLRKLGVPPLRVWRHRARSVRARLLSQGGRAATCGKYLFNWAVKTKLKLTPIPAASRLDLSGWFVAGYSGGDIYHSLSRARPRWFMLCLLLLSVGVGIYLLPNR

CC(C)[C@H](N)C(=O)O[C@@H]1[C@@H](CO)O[C@@H](n2ccc(N)nc2=O)[C@]1(C)O [NM 283, 3′-O-L-valinyl ester of β-D-2′-C-methyl-ribofuranosyl cytidine]
gastrointestinal toxicity / side-effects (in vivo, po): gastrointestinal side-effects | antiviral activity (HCV): significant antiviral activity | bioavailability [1]: good bioavailability

C[C@@]1(O)[C@H](O)[C@@H](CO)O[C@H]1n1ccc(N)nc1=O [β-D-2′-C-methyl-ribofuranosyl cytidine]
gastrointestinal toxicity / side-effects (oral administration, nausea, vomiting, diarrhea in some patients): gastrointestinal (GI) toxicity | inhibitory activity against the HCV NS5B polymerase (HCV NS5B polymerase): potent inhibitory activity
